This note sets out measurements from patent US10259810B2, “N-sulfonylated pyrazolo[3,4-b]pyridin-6-carboxamides and method of use” (AbbVie S.à.r.l., priority 2015, dated 2019).

Holding throughout (format): cell-based
The target in test [1] is T1, ΔF508-CFTR (Homo sapiens, UniProt P13569, DEL508-508).
T1 construct: host or cells: CFBE41o-, doxycycline-inducible
Briefly: CFTR cell surface levels using HRP-tagged ΔF508-CFTR expressing CFBE cells, in the presence of a co-corrector. The note with it: HRP-tagged ΔF508-CFTR CFBE cells, in the presence of 3 μM co-corrector; for EC50: read-out: EC50. In outline:
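Chemiluminescent read-out of surface HRP (15 min, dark) after PBS washes. Activity is normalized as 100×(sample−DMSO)/(3 μM co-corrector alone−DMSO).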

The target in test [2] is T1, ΔF508-CFTR. The test is described as follows: CFTR cell surface levels using HRP-tagged ΔF508-CFTR expressing CFBE cells, intrinsic corrector capacity. Further details: % Activation: concentration or dose not given beside the values. Particulars: HRP-tagged ΔF508-CFTR expressing CFBE41o- cells, compound alone (intrinsic corrector capacity), 20 hours at 33° C.; for EC50: read-out: EC50. In outline:
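Read-out: chemiluminescent HRP activity of ECL4-HRP-tagged ΔF508-CFTR at the cell surface, 15 min substrate in dark. Normalized as 100×(sample−DMSO)/(positive control−DMSO).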

Test [3] deals with T2, CFTR ΔF508 (Homo sapiens, UniProt P13569, DEL508-508).
T2 construct: bronchial epithelial cells isolated from CF patients homozygous for the CFTR ΔF508 mutation; McGill University; Asterand; University of North Carolina hAEC-CF; host or cells: primary human bronchial epithelial cells from CF patients homozygous for ΔF508, differentiated at air-liquid interface
T2 sequence (P13569 with tags, fused parts or gaps DEL508-508): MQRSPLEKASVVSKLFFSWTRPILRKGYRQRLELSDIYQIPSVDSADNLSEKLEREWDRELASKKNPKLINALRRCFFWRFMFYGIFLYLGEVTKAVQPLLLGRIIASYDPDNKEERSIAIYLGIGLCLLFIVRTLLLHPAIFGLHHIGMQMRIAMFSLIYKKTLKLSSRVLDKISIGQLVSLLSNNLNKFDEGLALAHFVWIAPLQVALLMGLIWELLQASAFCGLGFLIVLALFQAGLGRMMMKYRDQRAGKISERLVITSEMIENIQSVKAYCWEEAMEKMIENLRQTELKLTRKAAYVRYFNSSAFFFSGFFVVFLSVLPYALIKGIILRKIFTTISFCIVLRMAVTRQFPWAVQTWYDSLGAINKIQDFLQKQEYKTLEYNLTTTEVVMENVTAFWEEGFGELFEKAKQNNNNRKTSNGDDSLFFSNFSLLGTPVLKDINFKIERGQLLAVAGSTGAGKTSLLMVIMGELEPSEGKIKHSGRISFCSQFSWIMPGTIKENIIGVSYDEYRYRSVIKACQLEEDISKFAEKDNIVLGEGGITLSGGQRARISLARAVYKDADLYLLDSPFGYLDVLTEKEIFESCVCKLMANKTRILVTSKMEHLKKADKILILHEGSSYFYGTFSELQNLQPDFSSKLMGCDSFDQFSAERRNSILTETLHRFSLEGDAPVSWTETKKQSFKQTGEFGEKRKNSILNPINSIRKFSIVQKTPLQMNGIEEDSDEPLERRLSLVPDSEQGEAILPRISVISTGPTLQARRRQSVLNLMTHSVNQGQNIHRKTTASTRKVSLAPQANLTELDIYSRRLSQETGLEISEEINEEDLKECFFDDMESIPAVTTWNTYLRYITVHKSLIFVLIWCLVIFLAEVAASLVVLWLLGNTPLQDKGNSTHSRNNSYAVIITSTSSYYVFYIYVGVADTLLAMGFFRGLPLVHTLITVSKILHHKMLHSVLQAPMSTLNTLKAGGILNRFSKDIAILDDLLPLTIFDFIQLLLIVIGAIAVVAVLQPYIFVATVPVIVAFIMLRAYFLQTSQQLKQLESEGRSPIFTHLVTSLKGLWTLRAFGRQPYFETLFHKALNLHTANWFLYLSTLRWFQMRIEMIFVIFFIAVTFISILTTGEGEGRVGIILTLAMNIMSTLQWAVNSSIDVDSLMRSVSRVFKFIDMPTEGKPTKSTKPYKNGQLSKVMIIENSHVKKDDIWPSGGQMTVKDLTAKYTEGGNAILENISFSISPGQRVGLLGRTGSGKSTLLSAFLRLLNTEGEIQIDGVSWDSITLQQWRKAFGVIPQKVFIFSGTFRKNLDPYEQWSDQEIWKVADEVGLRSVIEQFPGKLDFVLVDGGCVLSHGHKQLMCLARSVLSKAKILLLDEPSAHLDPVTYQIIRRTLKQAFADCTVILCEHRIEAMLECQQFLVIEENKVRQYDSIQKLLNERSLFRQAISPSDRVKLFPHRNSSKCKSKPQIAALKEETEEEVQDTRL
Briefly: Chronic TECC assay, primary bronchial epithelial cells of CF patients homozygous for CFTR ΔF508 (corrector, co-corrector and potentiator). Particulars: chronic TECC, AUC = full area under the curve upon forskolin stimulation; for EC50: read-out: EC50 (nM) (AUC**); for % Activity at 1 μM (AUC**): test compound at 1 μM; for % Activity at 3 μM (AUC**): test compound at 3 μM. In outline:
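Primary bronchial epithelial cells from ΔF508-homozygous CF patients on collagen IV-coated Transwells were chronically treated with test compound plus corrector and potentiator, which were re-added before recording. Ieq was derived from PD and Rt in NaCl-Ringer, pH 7.4, at 37° C, with apical amiloride and bilateral forskolin, recorded every 2 min over 20 min. Ieq increase was normalized to controls, and EC50 was taken from per-well concentrations.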

The structures appear in SMILES notation.

T1 sequence (P13569 with tags, fused parts or gaps DEL508-508): as above

What is called EC50 is the midpoint of the concentration-response curve. Consider `O=C(NS(=O)(=O)N1CCOCC1)c1cc(N2CCC(N3CCN(C4CC4)CC3)CC2)c2c(C3CCC3)nn(-c3ccccc3)c2n1` [Compound 555, 3-cyclobutyl-4-[4-(4-cyclopropylpiperazin-1-yl)piperidin-1-yl]-N-(morpholine-4-sulfonyl)-1-phenyl-1H-pyrazolo[3,4-b]pyridine-6-carboxamide], for which, in test [1], the “% Activation” value is 432.55% and the EC50 amounted to 104 nM. Also, in test [2], the “% Activation” value is listed as 235.5% and the EC50 stood at 359 nM. In test [3], the EC50 was found to be 107 nM and the “% Activity at 1 μM (AUC**)” value came to 296.6667%.
In the case of `CNS(=O)(=O)NC(=O)c1cc(N2CCC(N3CCN(C4CC4)CC3)CC2)c2c(C3CCC3)nn(-c3ccccc3)c2n1` [Compound 558, 3-cyclobutyl-4-[4-(4-cyclopropylpiperazin-1-yl)piperidin-1-yl]-N-(methylsulfamoyl)-1-phenyl-1H-pyrazolo[3,4-b]pyridine-6-carboxamide], the entries for the “% Activation” value in test [1] and in test [2] were 571.35% and 399.1%, respectively. Besides, the results for the EC50 in test [1], in test [2] and in test [3] were 106 nM, 532 nM and 4.74 nM, respectively. In addition, the “% Activity at 1 μM (AUC**)” value in test [3] was 221.9818%.
For `CN(C)S(=O)(=O)NC(=O)c1cc(N2CCC(N3CCC(C#N)C3)CC2)c2c(C3CCC3)nn(-c3ccc(F)cc3)c2n1` (stereo not drawn) [Compound 561, 4-[4-(3-cyanopyrrolidin-1-yl)piperidin-1-yl]-3-cyclobutyl-N-(dimethylsulfamoyl)-1-(4-fluorophenyl)-1H-pyrazolo[3,4-b]pyridine-6-carboxamide], the figures for the “% Activation” value in test [1] and in test [2] were 509.4% and 311.6%, respectively. For the same compound, the EC50 in test [1] stood at 43 nM; in test [2], 107 nM. Besides, the “% Activity at 1 μM (AUC**)” value in test [3] stood at 620%.
In the same order, the values of `CN(C)S(=O)(=O)NC(=O)c1cc(N2CCC(N3CCCC(C#N)C3)CC2)c2c(C3CCC3)nn(-c3ccc(F)cc3)c2n1` (stereo not drawn) [Compound 562, 4-(3-cyano[1,4'-bipiperidin]-1'-yl)-3-cyclobutyl-N-(dimethylsulfamoyl)-1-(4-fluorophenyl)-1H-pyrazolo[3,4-b]pyridine-6-carboxamide] are 589.55%, 341.3%, 77.6 nM, 70.5 nM and 289.8854%.
In the case of `COC1CN(C2CCN(c3cc(C(=O)NS(=O)(=O)N(C)C)nc4c3c(C3CCC3)nn4-c3ccc(F)cc3)CC2)C1` [Compound 570, 3-cyclobutyl-N-(dimethylsulfamoyl)-1-(4-fluorophenyl)-4-[4-(3-methoxyazetidin-1-yl)piperidin-1-yl]-1H-pyrazolo[3,4-b]pyridine-6-carboxamide], in test [1], the “% Activation” value amounted to 412.9% and the half-maximal effective concentration (EC50) was determined as 208 nM. Moreover, in test [2], the “% Activation” value is recorded as 235.8% and the 50% effective concentration (EC50) turned out to be 496 nM. Also, the “% Activity at 3 μM (AUC**)” value in test [3] was found to be 377.5594%.
As for `CN(C)S(=O)(=O)NC(=O)c1cc(N2CCC(N3CCOCC3)CC2)c2c(C3CCC3)nn(-c3ccnc(OC(F)F)c3)c2n1` [Compound 575, 3-cyclobutyl-1-[2-(difluoromethoxy)pyridin-4-yl]-N-(dimethylsulfamoyl)-4-[4-(morpholin-4-yl)piperidin-1-yl]-1H-pyrazolo[3,4-b]pyridine-6-carboxamide], in test [1], the “% Activation” value was 361.3% and the EC50 turned out to be 87.8 nM. For the same compound, in test [2], the “% Activation” value came to 202.65% and the EC50 was determined as 147 nM. Also, the “% Activity at 1 μM (AUC**)” value in test [3] stood at 246.6667%.
With `O=C(NS(=O)(=O)N1CCC1)c1cc(N2CCC(N3CCOCC3)CC2)c2c(C3CCC3)nn(-c3ccc(F)cc3)c2n1` [Compound 576, N-(azetidine-1-sulfonyl)-3-cyclobutyl-1-(4-fluorophenyl)-4-[4-(morpholin-4-yl)piperidin-1-yl]-1H-pyrazolo[3,4-b]pyridine-6-carboxamide], the “% Activation” value in test [1] is 443.5%; in test [2], 257.15%. Also, the EC50 in test [1] amounted to 54.7 nM; in test [2] it was 139 nM. Also, in test [3], the “% Activity at 3 μM (AUC**)” value was 225.798%.
Turning to `O=C(NS(=O)(=O)NC1CCOCC1)c1cc(N2CCC(N3CCOCC3)CC2)c2c(C3CCC3)nn(-c3ccc(F)cc3)c2n1` [Compound 578, 3-cyclobutyl-1-(4-fluorophenyl)-4-[4-(morpholin-4-yl)piperidin-1-yl]-N-[(oxan-4-yl)sulfamoyl]-1H-pyrazolo[3,4-b]pyridine-6-carboxamide], the “% Activation” value in test [1] was determined as 462.3%; in test [2] it was 309.25%. For the same compound, the concentration giving a half-maximal response (EC50) is 108 nM in test [1] and 152 nM in test [2]. The “% Activity at 1 μM (AUC**)” value in test [3] is listed as 936.6667%.
As to `CN(C)S(=O)(=O)NC(=O)c1cc(N2CCC(N3CCN(C4CC4)CC3)CC2)c2c(C3CCC3)nn(-c3ccc(F)cc3)c2n1` [Compound 583, 3-cyclobutyl-4-[4-(4-cyclopropylpiperazin-1-yl)piperidin-1-yl]-N-(dimethylsulfamoyl)-1-(4-fluorophenyl)-1H-pyrazolo[3,4-b]pyridine-6-carboxamide], the “% Activation” value in test [1] is recorded as 480.15%; in test [2], 269.7%. The EC50 was found to be 47.6 nM in test [1], 178 nM in test [2] and 51.3 nM in test [3]. For the same compound, in test [3], the “% Activity at 1 μM (AUC**)” value was found to be 613.3333%.
On to `CN(C)S(=O)(=O)NC(=O)c1cc(N2CCC(CN3CCCC3)CC2)c2c(C3CCC3)nn(-c3ccc(F)cc3)c2n1` [Compound 589, 3-cyclobutyl-N-(dimethylsulfamoyl)-1-(4-fluorophenyl)-4-{4-[(pyrrolidin-1-yl)methyl]piperidin-1-yl}-1H-pyrazolo[3,4-b]pyridine-6-carboxamide], for which, in test [1], the “% Activation” value came to 422.95% and the EC50 was found to be 148 nM. For the same compound, in test [2], the “% Activation” value was 193.6% and the EC50 was 200 nM. In addition, the “% Activity at 1 μM (AUC**)” value in test [3] turned out to be 236.6667%.
`CCOC(=O)N1CCN(C2CCN(c3cc(C(=O)NS(=O)(=O)N(C)C)nc4c3c(C3CCC3)nn4-c3ccc(F)cc3)CC2)CC1` [Compound 590, ethyl 4-(1-{3-cyclobutyl-6-[(dimethylsulfamoyl)carbamoyl]-1-(4-fluorophenyl)-1H-pyrazolo[3,4-b]pyridin-4-yl}piperidin-4-yl)piperazine-1-carboxylate]: the “% Activation” value in test [1] stood at 487.9%; in test [2], 290.3%. Further, the EC50 in test [1] was 31.4 nM; in test [2], 86.7 nM. In test [3], the “% Activity at 3 μM (AUC**)” value was found to be 220.4586%.
In the same order, the values of `CN(C)S(=O)(=O)NC(=O)c1cc(C2CCN(C3CCC(F)(F)CC3)CC2)c2c(C3CCC3)nn(-c3ccc(F)cc3)c2n1` [Compound 594, 3-cyclobutyl-4-[1-(4,4-difluorocyclohexyl)piperidin-4-yl]-N-(dimethylsulfamoyl)-1-(4-fluorophenyl)-1H-pyrazolo[3,4-b]pyridine-6-carboxamide] are 308.05%, 135.7%, 181 nM, 519 nM and 320%.
For `CC(C)Oc1nn(C2CCCCC2)c2nc(C(=O)NS(C)(=O)=O)cc(-c3ccc(CN4CCN(C5CC5)CC4)cc3)c12` [Compound 597, 1-cyclohexyl-4-{4-[(4-cyclopropylpiperazin-1-yl)methyl]phenyl}-N-(methanesulfonyl)-3-[(propan-2-yl)oxy]-1H-pyrazolo[3,4-b]pyridine-6-carboxamide], the “% Activation” value in test [1] was determined as 433.93%; in test [2] it was 214.3%. Also, the values for the EC50 in test [1] and in test [2] were 111 nM and 130 nM, respectively. Also, in test [3], the “% Activity at 1 μM (AUC**)” value amounted to 263.3333%.
In the case of `CS(=O)(=O)NC(=O)c1cc(C2CCN(C3CCOCC3)CC2)c2c(C3CCC3)nn(-c3ccc(F)cc3)c2n1` [Compound 599, 3-cyclobutyl-1-(4-fluorophenyl)-N-(methanesulfonyl)-4-[1-(oxan-4-yl)piperidin-4-yl]-1H-pyrazolo[3,4-b]pyridine-6-carboxamide], in test [1], the “% Activation” value worked out at 285.2% and the EC50 amounted to 270 nM. In addition, in test [2], the “% Activation” value worked out at 88.94% and the EC50 was 331 nM. The “% Activity at 1 μM (AUC**)” value in test [3] is reported as 116.6667%.
For `CN(C)S(=O)(=O)NC(=O)c1cc(N2CCC(N3CCC(O)CC3)CC2)c2c(C3CCC3)nn(-c3ccc(F)cc3)c2n1` [Compound 605, 3-cyclobutyl-N-(dimethylsulfamoyl)-1-(4-fluorophenyl)-4-(4-hydroxy[1,4'-bipiperidin]-1'-yl)-1H-pyrazolo[3,4-b]pyridine-6-carboxamide] the same measures were 395.8%, 723 nM, 207.5%, 317 nM and 726.6667%.
